{"source": "patent US6599499B1", "about": "“Uses of diterpenoid triepoxides as an anti-proliferative agent” (priority 1999, dated 2003)", "key": {"NF-κB": {"tested_on": "NF-κB", "test": "NF-κB transcriptional activity in HT1080 cells", "assay_type": "cell-based, human"}, "Dx5 cells": {"tested_on": "Dx5 cells", "test": "Internucleosomal DNA laddering in Dx5 cells", "assay_type": "cell-based, human", "protocol": "Cell death reagents and assays. Cell viability was measured by an MTT assay as recently described (Lee et al. (1999) J. Biol. Chem. 274:13451-13455. z-VAD-fluoromethylketone (z-VAD.fmk) was obtained from Alexis Biochemicals, San Diego, Calif. The effect of z-VAD.fmk on cell viability was analyzed by annexin and propidium iodide staining followed by FACS analysis according to the manufacturer's protocol (Clontech Laboratories, Palo Alto, Calif.). The analysis of apoptosis in histologic sections was done by terminal deoxynucleotidyl transferase (TdT)-mediated d-UTP nick end labeling (TUNEL) of slides from paraffin sections of day 3 tumors harvested from the mice 24 h after the second of two daily treatments with PG490-88 or saline. TUNEL staining was done according to the manufacturer's protocol (Boehringer Mannheim, Indianapolis, Ind.) and then the histology slides were counterstained with methyl green. DNA was isolated from cells for analysis of internucleosomal DNA laddering followed by agarose gel electrophoresis and ethidium bromide staining.\nIn FIG. 1A, ZR-75 (breast cancer), H23 (non-small cell lung cancer) and Dx5 (MDR uterine sarcoma) cell lines were treated with PG490 at dosages shown and harvested 48 h later for analysis of cell viability by an MTT assay. […]"}, "p53 [1]": {"tested_on": "p53", "test": "p53 protein stability in the presence of cycloheximide", "assay_type": "cell-based, human", "protocol": "(§1) Immunoblot analysis using other antibodies was performed as described above. The band intensity was measured by NIH Image 1.62.\nImmunoblotting. Cells were harvested at the conditions and times indicated and lysed using HNET buffer (50 mM HEPES, pH 7.5, 100 mM NaCl, 1 mM EGTA, and 1% Triton X-100) supplemented with 1 mM dithiothreitol, 1 mM phenylmethylsulfonyl fluoride, and protease inhibitors mixture (Roche Molecular Biochemicals). 100 μg of protein was loaded on 10% SDS-PAGE followed by transferring to polyvinylidene difluoride membrane. Immunoblotting was performed as described previously using a p53 mouse monoclonal antibody from Oncogene Research Products. […] Immunoblot analysis using other antibodies was performed as described above. The band intensity was measured by NIH Image 1.62."}, "p53 [2]": {"tested_on": "p53", "test": "p53 translocation into the nucleus, sub-cellular fractionation of MCF-7 cells", "assay_type": "cell-based, human", "settings": "MCF-7, triptolide 20 ng/ml", "protocol": "Sub-cellular fractionation of MCF-7 cells. After treatment with triptolide (5 or 20 ng/ml) and/or doxorubicin (100 nM) cytosolic and nuclear extracts were prepared as previously described (Lee et al. (1988) Gene Anal Tech 5:22-31) and 50 μg of each extract was used in SDS/PAGE immunoblot analysis of p53."}, "p53 translation": {"tested_on": "p53 translation", "test": "p53 translation by 35S methionine metabolic labeling of HT1080 cells", "assay_type": "cell-based, human", "settings": "HT1080, triptolide 20 ng/ml pretreatment 6 h", "protocol": "Metabolic Labeling of HT1080 Cells. Cells were grown to 80% confluence followed by pretreatment with triptolide (20 ng/ml) for 6 h in the appropriate medium. Cells were washed twice with short term labeling medium (RPMI with 5% dialyzed fetal calf serum supplemented with L-glutamine, penicillin, and streptomycin). To deplete intracellular pools of methionine, short term labeling medium was added for 15 min at 37° C. and then replaced by short term labeling medium containing 0.1 mCi/ml [35S]methionine (Amersham Pharmacia Biotech). Cells were labeled for 30 min at 37° C. and washed with ice-cold PBS before harvesting for immunoprecipitation. The cells were lysed using RIPA buffer supplemented with protease inhibitors and immunoprecipitated using an agarose-conjugated p53 mAb (Ab-6, Oncogene Research Products) followed by 10% SDS-PAGE. The intensity of labeled p53 protein was measured by NIH Image 1.62."}, "Bax": {"tested_on": "Bax", "test": "Bax protein level by immunoblot in MCF-7 cells", "assay_type": "cell-based, human", "settings": "triptolide-treated MCF-7 cells", "protocol": "Immunoblotting. At 8 hours after triptolide and/or doxorubicin treatment cells were harvested at the times indicated and lysed using HNET buffer (50 mM HEPES pH 7.5, 100 mM NaCl, 1 mM EGTA, and 1% Triton X-100) supplemented with 1 mM DTT, 1 mM PMSF and protease inhibitors cocktail (Boehringer Mannheim, Germany). 35 μg of protein was loaded on 10% SDS-PAGE followed by transferring to PVDF membrane. Immunoblotting was performed as previously described using a p53 mouse monoclonal antibody from Oncogene Research Products (Lee et al. (1999) J Biol Chem 274:13451-5).\nas §1"}, "phosphorylated p53": {"tested_on": "phosphorylated p53", "test": "p53 phosphorylation by in vivo [32P]orthophosphate labeling of HT1080 cells", "assay_type": "cell-based, human", "settings": "HT1080, triptolide 20 ng/ml, 3 h", "protocol": "In Vivo [^32P]Orthophosphate Labeling. Subconfluent HT1080 cells were pretreated with 20 ng/ml triptolide for 2 h in Dulbecco's modified Eagle's medium supplemented with 10% fetal bovine serum and antibiotics. These cells were washed twice with 37 ° C. labeling medium (Dulbecco's modified Eagle's medium, 10% fetal bovine serum dialyzed against phosphate-free) lacking sodium phosphate. Cells were then labeled for an additional 1 h with the labeling medium containing 1 mCi/ml [32P]orthophosphate and 20 ng/ml triptolide. The labeling medium was removed, and the cells were washed three times with cold Tris-buffered saline (TBS). The cells were scraped in 1 ml of lysis buffer (1% Nonidet P40, 1% sodium deoxycholate, 0.1% SDS, 0.15 M NaCl, 0.01 M sodium phosphate, pH 7.2, 2 mM EDTA, 50 mM sodium fluoride, 0.2 mM sodium vanadate, and 100 units/ml aprotinin) and kept on ice for 10 min. Lysates were passed through 27-gauge needles and spun at 11,000×g for 10 min, and 100 μg of the supernatants were subjected to immunoprecipitation with p53 mAb (Ab-6) conjugated with agarose for 4 h. Samples were then spun at 2500 rpm at 4° C. for 5 min and washed three times with the lysis buffer. The pellets were boiled in SDS sample buffer and analyzed on 10% SDS-PAGE. The bands were visualized and quantified by Optiquant Phosphorlmager."}, "[3]": {"test": "Observable toxicity in treated mice (body weight, activity, respiration)", "assay_type": "in vivo", "protocol": "PG490-88 (0.75 mg/kg) as measured by a change in body weight, altered activity or labored respiration."}}}
{"smiles": "COc1cccc2c1C(=O)c1c(O)c3c(c(O)c1C2=O)C[C@@](O)(C(=O)CO)C[C@@H]3O[C@H]1C[C@H](N)[C@H](O)[C@H](C)O1", "note": "[doxorubicin, reference compound]", "values": [{"measurement": "NF-κB transcriptional activity", "setting": "NF-κB", "value": "did not induce"}]}
{"smiles": "CC(C)[C@]12O[C@H]1[C@@H]1O[C@]13[C@]1(O[C@H]1C[C@H]1C4=C(CC[C@@]13C)C(=O)OC4)[C@@H]2O", "note": "[PG490, triptolide]", "values": [{"measurement": "DNA laddering, time it began", "setting": "Dx5 cells", "value": 6, "unit": "h"}, {"measurement": "DNA laddering, time of maximum", "setting": "Dx5 cells", "value": "≤ 16", "unit": "h"}, {"measurement": "p53 stability versus untreated cells", "setting": "p53 [1]; HT1080, triptolide 20 ng/ml 0.5 h prior to cycloheximide 30 μg/ml", "value": "no difference from untreated cells at 60 min"}, {"measurement": "p53 stability versus untreated cells", "setting": "p53 [1]; MCF-7, triptolide 0.5 h prior to cycloheximide 30 μg/ml", "value": "no difference from untreated cells at 60 min"}, {"measurement": "localisation of the majority of p53", "setting": "p53 [2]", "value": "translocated into nuclei"}, {"measurement": "increase in p53 translation", "setting": "p53 translation", "value": 4.9, "unit": "fold"}, {"measurement": "change in Bax", "setting": "Bax", "value": "no significant change"}, {"measurement": "increase in phosphorylated p53 compared with untreated cells", "setting": "phosphorylated p53", "value": "2-3 fold"}]}
{"smiles": "CC(C)[C@]12O[C@H]1[C@@H]1O[C@]13[C@]1(O[C@H]1C[C@H]1C4=C(CC[C@@]13C)C(=O)OC4)[C@@H]2OC(=O)CCC(=O)[O-].[Na+]", "note": "[PG490-88, 14-succinyl triptolide sodium salt]", "values": [{"measurement": "observable toxicity (change in body weight, altered activity or labored respiration)", "setting": "[3]; PG490-88 0.75 mg/kg", "value": "no observable toxicity"}, {"measurement": "tolerability", "setting": "[3]; triptolide dosage on molar comparison to PG490-88 70 μg/mouse/week", "value": "well tolerated"}]}
